Results: PubChem BioAssay AID686931 (Broad Institute, 2013)
“And” between values parts separate entries of the source, which are not always exact repeats. Equal entries are not always repeated. The source made the active and inactive calls. How the calls were made is not given here.

Experiments:
[1] = system: V. cholerae DH231 (delta cqsS) luciferase light production; assay: Confirmatory dose response, V. cholerae DH231 delta cqsS, luciferase light activation (AID 686931)
[2] = as above; details: V. cholerae DH231 (delta cqsS) luciferase light production

| Compound | AC40 [1] | activation ([2]; at 100 µM (top of the series)) | further results |
| --- | --- | --- | --- |
| Cc1ccc2cc3c(NC(=O)c4ccco4)nn(C)c3nc2c1 | 6.52 µM and 15.8 µM | – | – |
| Cc1cc2nc3c(cc2cc1F)c(NC(=O)c1ccco1)nn3C | 21.7 µM | – | – |
| COc1ccc2cc3c(NC(=O)c4ccco4)nn(C)c3nc2c1 | 1.83 µM | – | – |
| O=C(Nc1nnc(-c2ccc3c(c2)OCCO3)o1)C1CC1 | – | -0.326% (inactive) | – |
| CCCCCCCCCC(=O)C(O)CC (configuration not stated) | – | – | activation ([2]; at 50 µM (top of the series)): -0.408% (inactive) |
| Cc1ccc2cc3c(NC(=O)c4cccs4)nn(C)c3nc2c1 | 75.3 µM | – | – |
| Cc1cc(F)cc2nc3c(cc12)c(NC(=O)c1ccco1)nn3C | 70.7 µM | – | – |
| O=C(Nc1nnc(-c2ccc(Cl)cc2)o1)C1CCCCC1 | – | – | activation ([2]; at 80 µM (top of the series)): -1.2% (inactive) |
| CCC(C)(C)C(=O)Nc1nnc(-c2ccc3c(c2)OCCO3)o1 | – | – | activation ([2]; at 80 µM (top of the series)): 0.359% (inactive) |
| CN1CCC(C(=O)Nc2nnc(-c3ccc4c(c3)OCCO4)o2)CC1 | – | 0.079% (inactive) | – |
| O=C(Nc1nnc(-c2ccc3c(c2)OCCO3)o1)C1CCCCCC1 | 10.5 µM | – | – |
| Cn1nc(NC(=O)c2ccco2)c2cc3ccccc3nc21 | 4.18 µM | – | – |
| Cc1ccc2cc3c(NC(=O)C4CCCC4)nn(C)c3nc2c1 | 37.9 µM | – | – |
| Cc1ccc2cc3c(NC(=O)c4ccc(C)o4)nn(C)c3nc2c1 | – | 0.174% (inactive) | – |
| COc1cccc(-c2nnc(NC(=O)C3CCCCC3)o2)c1 | – | 3.05% (inactive) | – |
| CC(C)(C)OC(=O)N1CCC(C(=O)Nc2nnc(-c3ccc4c(c3)OCCO4)o2)CC1 | – | 0.619% (inactive) | – |
| Cc1ccc2cc3c(NC(=O)Cc4ccco4)nn(C)c3nc2c1 | – | 13.6% (inactive) | – |
| COc1ccc(-c2nnc(NC(=O)C3CCCCC3)o2)cc1 | > 100 µM (inactive) | – | – |
| Cc1ccc2cc3c(NC(=O)c4cc5ccccc5o4)nn(C)c3nc2c1 | – | 0.496% (inactive) | – |
| O=C(Nc1nnc(-c2ccncc2)o1)C1CCC1 | – | 0.692% (inactive) | – |
| Cc1cc(F)c2cc3c(NC(=O)c4ccco4)nn(C)c3nc2c1 | 76.2 µM | – | – |
| O=C(CC1CCCCC1)Nc1nnc(-c2ccc3c(c2)CCCC3)o1 | – | – | activation ([2]; at 35 µM (top of the series)): 0.843% (inactive) |
| COc1ccccc1-c1nnc(NC(=O)C2CCCCC2)o1 | > 100 µM (inactive) | – | – |
| O=C(Cc1ccc(-c2ccccc2)cc1)NC1CCC1 | – | -0.546% (inactive) | – |
| c1ccc(CNc2nnc(-c3ccc4c(c3)OCCO4)o2)cc1 | – | -0.54% (inactive) | – |
| COc1ccc(-c2nnc(NC(C)=O)o2)cc1 | – | 1.64% (inactive) | – |

| Compound | AC40 [1] | activation ([2]; at 100 µM (top of the series)) | further results |
| --- | --- | --- | --- |
| O=S(=O)(Nc1nnc(-c2ccc3c(c2)OCCO3)o1)c1ccc(Cl)cc1 | – | -1.11% (inactive) | – |
| CCc1ccc2cc3c(NC(=O)c4ccco4)nn(C)c3nc2c1 | 31 µM | – | – |
| Cc1ccc2cc3c(NC(=O)c4ccoc4)nn(C)c3nc2c1 | – | – | activation ([2]; at 80 µM (top of the series)): 10.6% (inactive) |
| O=C(Nc1nnc(-c2ccc3c(c2)OCCO3)o1)C1CCCCC1 | 4.54 µM and 1.67 µM | – | – |
| C(=N\c1nnc(-c2ccc3c(c2)OCCO3)o1)/c1ccccc1 | – | 0.573% (inactive) | – |
| O=C(Nc1nnc(-c2ccc3c(c2)OCCO3)o1)C(F)(F)c1ccccc1 | – | -1.19% (inactive) | – |
| CN(C)/C=N/c1nnc(-c2ccc3c(c2)OCCO3)o1 | – | -0.521% (inactive) | – |
| CCCCCCCCCC(=O)[C@H](O)CC (racemic) | – | -0.642% (inactive) | – |
| COc1ccc(S(=O)(=O)Nc2nnc(-c3ccc4c(c3)OCCO4)o2)cc1 | – | -1.4% (inactive) | – |
| O=C(Nc1nnc(-c2ccc3c(c2)CCCC3)o1)C1CCC1 | – | – | activation ([2]; at 80 µM (top of the series)): -0.346% (inactive) |
| O=C(Nc1nnc(-c2ccc3c(c2)OCCO3)o1)C1CCC1 | – | 0.218% (inactive) | – |
| Cn1ccc(NC(=O)c2ccco2)n1 | – | 0.502% (inactive) | – |
| Cn1nc(NC(=O)c2ccco2)c2ccccc21 | 78.1 µM | – | – |
| O=C(Nc1nnc(-c2ccc3c(c2)OCCO3)o1)C1CCCC1 | – | – | activation ([2]; at 80 µM (top of the series)): 8.16% (inactive) |
| Cn1nc(NC(=O)c2ccco2)c2cc3ccc(C(C)(C)C)cc3nc21 | – | -1.04% (inactive) | – |
| O=C(Nc1nnc(-c2cccc(Cl)c2)o1)C1CCCCC1 | – | – | activation ([2]; at 80 µM (top of the series)): 1.82% (inactive) |
| O=C(Nc1nnc(-c2cccnc2)o1)C1CCCCC1 | 88.1 µM | – | – |
| CC(C)c1ccc2cc3c(NC(=O)c4ccco4)nn(C)c3nc2c1 | – | 2.47% (inactive) | – |
| O=C(Nc1nnc(C2CCCC2)o1)C1CCCCC1 | – | -0.731% (inactive) | – |
| Cn1nc(NC(=O)c2ccco2)c2cccnc21 | 20.4 µM | – | – |
| Cc1cc2cc3c(NC(=O)c4ccco4)nn(C)c3nc2cc1C | 22.2 µM | – | – |
| Cc1ccc2cc3c(NC(=O)c4ccccn4)nn(C)c3nc2c1 | – | 1.04% (inactive) | – |
| O=C(Nc1nnc(-c2cccnc2)o1)C1CCC1 | – | 0.588% (inactive) | – |
| O=C(CC1CCCCC1)Nc1nnc(-c2cccnc2)o1 | – | – | activation ([2]; at 80 µM (top of the series)): -0.959% (inactive) |
| CCn1nnnc1NCc1ccc(C(C)C)cc1 | – | -0.577% (inactive) | – |
| O=C(Nc1nnc(-c2ccccc2Cl)o1)C1CCCCC1 | – | 0.072% (inactive) | – |
